Consider one molecule from BindingDB's records for doi:10.1016/S0960-894X(00)80062-1 (1994).

In this assay the target is Squalene synthase (Candida albicans). The assay can be described thus: In vitro inhibitory activity against Candida albicans squalene synthase.

As a reminder, the IC50 is the point on the concentration scale where inhibition reaches its midpoint. A high value points to weaker potency in that assay.

The molecule `C=C(CCC12CCC(C(=O)O)(O1)C(O)(C(=O)O)C(C(=O)O)O2)[C@@H](OC(C)=O)[C@H](C)Cc1ccccc1` (stereo partly drawn) [1-((4S,5R)-4-Acetoxy-5-methyl-3-methylene-6-phenyl-hexyl)-4-hydroxy-2,8-dioxa-bicyclo[3.2.1]octane-3,4,5-tricarboxylic acid] came in with an IC50 of 430 nM.
